The compounds below were run on GDF8 signaling (p-SMAD-3 (Ser423/425)) (assay: AlphaScreen SureFire SMAD3 (p-Ser423/425) assay, GDF8-stimulated cells (GDF pSMAD)). Settings: Mus musculus, MPC-11, GDF8-stimulated pSMAD3, MPC11; tested as the salt form given; read-out: GDF pSMAD (MPC11) (μM), inhibition of GDF8 signaling.
Format: cell-based

| IC50 [µM] | Compound |
| --- | --- |
| 10.4 | COC(=O)CNc1ncnc2ccc(-c3cccnc3-c3ccc(F)c(C)c3)cc12 [compound 1028, methyl (6-(2-(4-fluoro-3-methylphenyl)pyridin-3-yl)quinazolin-4-yl)glycinate] |
| 3.73 | Cc1cc2ncnc(N)c2cc1-c1cccnc1-c1ccc(F)c(Cl)c1 [compound 980, 6-(2-(3-chloro-4-fluorophenyl)pyridin-3-yl)-7-methylquinazolin-4-amine] |

The remaining lines, values behind:

| Compound | IC50 [µM] |
| --- | --- |
| Nc1ncnc2ccc(-c3cccnc3-c3cc(OC(F)(F)F)ccc3Cl)cc12 [compound 1009, 6-(2-(2-chloro-5-(trifluoromethoxy)phenyl)pyridin-3-yl)quinazolin-4-amine] | 3.29 |
| Cc1cnc(-c2cccc(O)c2)c(-c2ccc3ncnc(N)c3c2)c1 [compound 991, 3-(3-(4-aminoquinazolin-6-yl)-5-methylpyridin-2-yl)phenol] | 20.2 |

Same assay, conditions: Mus musculus, MPC-11, MPC11; GDF8-stimulated; p-SMAD3 AlphaScreen; read-out: GDF pSMAD (MPC11) (inhibition of GDF8 signaling)

| IC50 [µM] | Compound |
| --- | --- |
| 1.06 | Cc1cc(-c2ncccc2-c2ccn3ncc(C#N)c3n2)ccc1F [compound 901, 5-(2-(4-Fluoro-3-methylphenyl)pyridin-3-yl)pyrazolo[1,5-a]pyrimidine-3-carbonitrile] |
| 3.88 | Cc1cc(-c2ncccc2-c2ccc3ncc(C(C)(C)O)n3c2)ccc1F [compound 599, 2-(6-(2-(4-Fluoro-3-methylphenyl)pyridin-3-yl)imidazo[1,2-a]pyridin-3-yl)propan-2-ol] |
| 11.2 | Cc1cn2cc(-c3cccnc3-c3ccc(F)c(C)c3)ccc2n1 [compound 531, 6-(2-(4-Fluoro-3-methylphenyl)pyridin-3-yl)-2-methylimidazo[1,2-a]pyridine] |
| 0.127 | Cc1cc(-c2ncccc2-c2ccc3ncnc(N)c3c2)ccc1F [compound 392, 6-(2-(4-Fluoro-3-methylphenyl)pyridin-3-yl)quinazolin-4-amine] |
| 0.0326 | Cc1cccc(-c2ncccc2-c2ccc3[nH]ncc3c2)n1 [compound 116, 5-(2-(6-Methylpyridin-2-yl)pyridin-3-yl)-1H-indazole] |
| 0.127 | Cc1cccc(-c2ncccc2-c2ccn3nccc3c2)c1 [compound 757, 5-(2-(m-Tolyl)pyridin-3-yl)pyrazolo[1,5-a]pyridine] |
| 0.0681 | [2H]C([2H])([2H])c1cccc(-c2ncccc2-c2ccn3nccc3n2)c1 [compound 602, 5-(2-(3-(Methyl-d3)phenyl)pyridin-3-yl)pyrazolo[1,5-a]pyrimidine] |
| 8.09 | Cc1cc(-c2ncccc2-c2ccn3ncc(C(=O)N[C@@H]4CCCC[C@H]4N)c3c2)ccc1F [compound 663, N-((1R,2R)-2-Aminocyclohexyl)-5-(2-(4-fluoro-3-methylphenyl)pyridin-3-yl)pyrazolo[1,5-a]pyridine-3-carboxamide] |
| 0.161 | Cc1ccc(F)c(-c2ncccc2-c2ccc3ncc(C#N)n3c2)c1 [compound 624, 6-(2-(2-Fluoro-5-methylphenyl)pyridin-3-yl)imidazo[1,2-a]pyridine-3-carbonitrile] |
| 1.3 | Cc1cc(-c2ncccc2-c2ccc3ncc(-c4ccc(S(N)(=O)=O)cc4)n3c2)ccc1F [compound 281, 4-(6-(2-(4-Fluoro-3-methylphenyl)pyridin-3-yl)imidazo[1,2-a]pyridin-3-yl)benzenesulfonamide] |
| 10.2 | Cc1ccc(C(F)(F)F)cc1-c1ncccc1-c1ccn2ncnc2c1 [compound 878, 7-(2-(2-Methyl-5-(trifluoromethyl)phenyl)pyridin-3-yl)-[1,2,4]triazolo[1,5-a]pyridine] |
| 3.65 | Fc1ccc(-c2ncccc2-c2cnc3[nH]ncc3c2)cc1F [Compound 77, 5-(2-(3,4-Difluorophenyl)pyridin-3-yl)-1H-pyrazolo[3,4-b]pyridine] |
| 0.273 | Cc1cc(-c2ncccc2-c2ccn3ncc(C(=O)NCCCN4CCOCC4)c3c2)ccc1F [compound 672, 5-(2-(4-Fluoro-3-methylphenyl)pyridin-3-yl)-N-(3-morpholinopropyl)pyrazolo[1,5-a]pyridine-3-carboxamide] |
| 2.26 | Cc1cc(-c2ncccc2-c2ccc3ncc(C(=O)NCCC45CCCN4CCC5)n3c2)ccc1F [compound 803, 6-(2-(4-Fluoro-3-methylphenyl)pyridin-3-yl)-N-(2-(tetrahydro-1H-pyrrolizin-7a(5H)-yl)ethyl)imidazo[1,2-a]pyridine-3-carboxamide] |
| 10.7 | Cc1cc(-c2ncccc2-c2ccc3ncnc(NC4CCCC4)c3c2)ccc1F [compound 405, N-Cyclopentyl-6-(2-(4-fluoro-3-methylphenyl)pyridin-3-yl)quinazolin-4-amine] |
| 8.46 | Cc1cc(-c2ncccc2-c2ccc3ncc(C(=O)N4CCOCC4)n3c2)ccc1F [compound 580, (6-(2-(4-Fluoro-3-methylphenyl)pyridin-3-yl)imidazo[1,2-a]pyridin-3-yl)(morpholino)methanone] |
| 10.8 | Cc1cc(-c2ncccc2-c2ccc3ncc(C(=O)N[C@@H]4CCCC[C@H]4N)n3c2)ccc1F [compound 679, N-((1R,2R)-2-Aminocyclohexyl)-6-(2-(4-fluoro-3-methylphenyl)pyridin-3-yl)imidazo[1,2-a]pyridine-3-carboxamide] |
| 0.112 | c1cc(-c2ncccc2-c2ccn3nccc3n2)cc(C2CC2)c1 [compound 912, 5-(2-(3-Cyclopropylphenyl)pyridin-3-yl)pyrazolo[1,5-a]pyrimidine] |
| 1.54 | Cc1cnc(-c2ccc(F)c(Cl)c2)c(-c2ccn3ncnc3c2)c1 [compound 864, 7-(2-(3-Chloro-4-fluorophenyl)-5-methylpyridin-3-yl)-[1,2,4]triazolo[1,5-a]pyridine] |

More lines, now with the values behind:

| Compound | IC50 [µM] |
| --- | --- |
| Nc1ncnc2ccc(-c3cccnc3-c3ccc(F)cc3Cl)cc12 [compound 499, 6-(2-(2-Chloro-4-fluorophenyl)pyridin-3-yl)quinazolin-4-amine] | 6.52 |
| COc1cccc(-c2ncccc2-c2ccc3ncnn3c2)c1 [compound 779, 6-(2-(3-Methoxyphenyl)pyridin-3-yl)-[1,2,4]triazolo[1,5-a]pyridine] | 0.761 |
| CCOc1cnc(-c2cccc(C)c2)c(-c2ccc3[nH]ncc3c2)c1 [Compound 3, 5-(5-Ethoxy-2-m-tolylpyridin-3-yl)-1H-indazole] | 1.3 |
| Cc1ccc(CNc2cnc(-c3ccc(F)c(C)c3)c(-c3ccc4ncsc4c3)c2)cn1 [compound 334, 5-(Benzo[d]thiazol-6-yl)-6-(4-fluoro-3-methylphenyl)-N-((6-methylpyridin-3-yl)methyl)pyridin-3-amine] | 0.373 |
| Cc1cc(-c2ncc(NCc3ccc(C#N)cc3)cc2-c2ccc3ncsc3c2)ccc1F [compound 309, 4-(((5-(Benzo[d]thiazol-6-yl)-6-(4-fluoro-3-methylphenyl)pyridin-3-yl)amino)methyl)benzonitrile] | 1.48 |
| O=C1CCCN1CCCOc1ncnc2ccc(-c3cccnc3-c3ccc(F)c(Cl)c3)cc12 [compound 436, 1-(3-((6-(2-(3-Chloro-4-fluorophenyl)pyridin-3-yl)quinazolin-4-yl)oxy)propyl)pyrrolidin-2-one] | 1.18 |
| Cc1cc(-c2ncc(Nc3ccncc3)cc2-c2ccc3ncsc3c2)ccc1F [compound 311, 5-(Benzo[d]thiazol-6-yl)-6-(4-fluoro-3-methylphenyl)-N-(pyridin-4-yl)pyridin-3-amine] | 4.72 |
| COc1cnc(-c2cc(Cl)c(F)cc2F)c(-c2ccn3ncnc3c2)c1 [compound 857, 7-(2-(5-Chloro-2,4-difluorophenyl)-5-methoxypyridin-3-yl)-[1,2,4]triazolo[1,5-a]pyridine] | 1.85 |
| Cc1ccccc1-c1ncccc1-c1ccc2ncnc(N)c2c1 [compound 462, 6-(2-(o-Tolyl)pyridin-3-yl)quinazolin-4-amine] | 18.4 |
| Fc1c(Cl)cccc1-c1ncccc1-c1ccc2ncnn2c1 [compound 772, 6-(2-(3-Chloro-2-fluorophenyl)pyridin-3-yl)-[1,2,4]triazolo[1,5-a]pyridine] | 4.95 |
| Nc1ccc(-c2ccc3[nH]ncc3c2)c(-c2cccc(C3CC3)c2)n1 [Compound 22, 6-(3-Cyclopropylphenyl)-5-(1H-indazol-5-yl)pyridin-2-amine] | 1.41 |
| Oc1cccc(-c2ncccc2-c2cnc3[nH]ncc3c2)c1 [Compound 156, 3-(3-(1H-Pyrazolo[3,4-b]pyridin-5-yl)pyridin-2-yl)phenol] | 1.79 |
| Cc1cccc(-c2ncccc2-c2ccc3nccc(N4CCOCC4)c3c2)c1 [compound 548, 4-(6-(2-(m-Tolyl)pyridin-3-yl)quinolin-4-yl)morpholine] | 16.4 |
| N#Cc1cccc(-c2ncccc2-c2ccc3ncsc3c2)c1 [compound 670, 3-(3-(Benzo[d]thiazol-6-yl)pyridin-2-yl)benzonitrile] | 0.367 |
| CC(=O)c1cnc2ccc(-c3cccnc3-c3cccc(C4CC4)c3)cn12 [compound 588, 1-(6-(2-(3-Cyclopropylphenyl)pyridin-3-yl)imidazo[1,2-a]pyridin-3-yl)ethan-1-one] | 0.316 |
| Nc1noc2cc(-c3cccnc3-c3cccc(Cl)c3)ccc12 [compound 798, 6-(2-(3-Chlorophenyl)pyridin-3-yl)benzo[d]isoxazol-3-amine] | 2.62 |
| Cc1cc(-c2ncc(NCc3ccccn3)cc2-c2ccc3nccnc3c2)ccc1F [compound 246, 6-(4-Fluoro-3-methylphenyl)-N-(pyridin-2-ylmethyl)-5-(quinoxalin-6-yl)pyridin-3-amine] | 1.29 |
| Fc1ccc(-c2ncccc2-c2ccc3[nH]ncc3c2)c(F)c1 [Compound 70, 5-[2-(2,4-Difluorophenyl)pyridin-3-yl]-1H-indazole] | 5.7 |
| Cc1cccc(-c2ncccc2-c2ccc3ncc(N(C)C)n3c2)c1 [compound 552, N,N-Dimethyl-6-(2-(m-tolyl)pyridin-3-yl)imidazo[1,2-a]pyridin-3-amine] | 4.06 |
| Nc1cccc(-c2ncccc2-c2ccc3[nH]ncc3c2)c1 [Compound 75, 5-(2-(3-Aminophenyl)pyridin-3-yl)-1H-indazole] | 3.47 |

— patent US10858335B2 (Rigel Pharmaceuticals, Inc., priority 2014, dated 2020)
